{
  "source": "patent US20230310542A1",
  "about": "“EPIGENETIC MODIFIERS TO TREAT RETINAL DEGENERATIONS” (priority 2022, published 2023)",
  "assay_type_in_all_cases": "in vivo, mouse",
  "key": {"rd10 mice [1]": {"test_system": "rd10 mice", "test": "Visual function by OptoMotry optomotor reflex", "settings": "GSK ESD", "procedure": "A Cerebral Mechanics OptoMotry system (CerebralMechanics Inc.) was used to evaluate visual function in control and GSK ESD rd10 mice. Spatial frequency (SF) threshold and contrast sensitivity (CS) were assessed using a video camera to monitor optomotor reflex. CS was assessed at a SF of 0.092 cycles/degree. SF was assessed at 100% contrast. The CS and SF thresholds were identified as the highest values that elicited the reflexive head movement. […] CS were measured three times on PN33-35, when control mice were blind."}, "rod nuclei": {"test_system": "rod nuclei", "test": "Number of heterochromatin foci in rod nuclei, rd10 mice", "settings": "rd10 + GSK, PN24"}, "rd10 mice [2]": {"test_system": "rd10 mice", "test": "Rod photoreceptor preservation in rd10 mice (photoreceptor rows in ONL, immunofluorescence)", "procedure": "All inhibitors were diluted in 0.9% bacteriostatic sodium chloride (saline).\nRetinas were fixed in 4% paraformaldehyde overnight at 4° C., washed in PBS, incubated in 5% sucrose/PBS for 30 min and then cryopreserved in 20% sucrose/PBS overnight at 4° C. Retinas were embedded in 2:1 mix of 20% sucrose and OCT (Sakura Finetek Torrance, CA) and stored at −80° C. Blocks with tissue samples were sectioned to 7-10 μm on a Cryostat Microtome HM550 (Thermo Fisher Scientific) and stored at −20° C. Antigen retrieval was performed by incubating the slides in 10 mM sodium citrate pH 6 for 30 min at 80° C. Double labeling immunohistochemistry was performed using fluorescent Alexa Fluor-conjugated secondary antibodies diluted 1:800 (Invitrogen, Carlsbad, California). Primary antibodies were diluted as follow: anti-H3K4me2 1:600, anti-H3K9me2 1:600, anti-RHO 1:50, anti-OPN1SW 1:400, anti-GFAP 1:1000, anti-IBA1 1:450 (AifI gene). […] The acquisition parameters were maintained constant for each set of experiments. Fluorescence intensity was assessed using ImageJ software (Bethesda, MD)."}, "GFAP, IBA1": {"test_system": "GFAP, IBA1", "test": "Immunofluorescence labeling of GFAP and IBA1 in retina sections", "settings": "rd10, treated PN9 till PN24", "procedure": "Fluorescence intensity was assessed using ImageJ software (Bethesda, MD)."}, "H3K4me2, H3K9me2 [3]": {"test_system": "H3K4me2, H3K9me2", "test": "Anti-H3K4me2 and anti-H3K9me2 Western blot of WT retina", "settings": "WT mice treated PN9 till PN24", "procedure": "(§1) Both retinas from one animal were flash frozen together in liquid nitrogen and stored at −80° C. Samples for SDS-PAGE were prepared by resuspended retinas in 50 μl PBS. Laemmli sample buffer was added, samples were boiled for 10 min, resolved on Criterion TGX Precast Gel AnyKD (Bio-Rad), transferred to nitrocellulose membrane, and immunoblotted with antibodies anti-H3K9me2 or anti-H3K4me2 diluted 1:5000; anti-ACTB diluted 1:10000; anti-PDE6B (1:500). Secondary goat anti-rabbit/mouse HRP (Jackson Immuno-Research Laboratory, West Grove, PA) was diluted 1:5000. An ECL western blot detection system (Thermo Fisher Scientific) was used to visualize the bound of the primary antibody."}, "Pde6b protein": {"test_system": "Pde6b protein", "test": "Anti-PDE6B Western blot of retina", "settings": "rd10 mice, GSK PN9 till PN24 vs saline", "procedure": "as §1"}, "rd10 mice [4]": {"test_system": "rd10 mice", "test": "GSK2879552 in artificial tears applied to the eyes of rd10 mice, rod gene expression", "settings": "solution in artificial tears, daily to both eyes, 5 μl", "procedure": "A solution of GSK2879552 was prepared in artificial tears and applied daily to both eyes of rd10 mice in a volume of 5 μl."}, "WT mice retina": {"test_system": "WT mice retina", "test": "RT-PCR retinal gene expression, WT mice", "procedure": "(§2) Whole retinas were isolated from animals by removing the sclera and most of the retinal pigmented epithelium (RPE) layer under PBS. The right eye retinas from each animal were taken for RNA extraction, cDNA preparation and RT-PCR. Immediately after isolation, tissue was flash frozen in liquid nitrogen and stored at −80° C. Left eye retinas from each animal were subjected to fixation, cryopreservation, sectioning, and immunofluorescence staining. RNA extraction and purification followed the manufacturer's protocol from RNeasy Mini Kit and RNA shredder (Qiagen). […] Primers purchased from Integrated DNA Technologies (IDT). For quantitative real-time PCR we used 2× iQ-SYBR Green PCR supermix from Bio-Rad. Samples in triplicate were run on an iQ5 Multicolor Real Time PCR Detection System (Bio-Rad). The relative expression level for each gene was calculated by the 2-ΔΔCt method and normalized to GAPDH."}, "H3K4me2, H3K9me2 [5]": {"test_system": "H3K4me2, H3K9me2", "test": "Chromatin immunoprecipitation (ChIP) on gene regulatory elements, WT retina", "settings": "WT mice, GSK PN9 till PN24", "procedure": "Lysate preparation for ChIP was carried out. In brief, 10 mouse retinas were rapidly isolated and rinsed in PBS on ice. Cell suspensions in PBS were crosslinked with 1% formaldehyde for 15 min at room temperature, followed by quenching with 1 M glycine, incubation on ice for 5 min, and centrifugation for 7 min at 4,000 rpm at 4° C. Pellets were resuspended in 500 μl L-CHIP buffer (1% SDS, 10 mM EDTA, 50 mM Tris-HCl pH 8.0), 1 mM PMSF and PI, sonicated twice at setting 3 for 10 sec on Sonic Dismembrator (Fisher Scientific, Model 100). Protein concentrations were adjusted to 1 mg/ml with L-CHIP buffer. ChIP was performed and subjected to quantitative PCR, primers for genomic regions are specified in Table 2."}, "rd10 mice retina": {"test_system": "rd10 mice retina", "test": "RT-PCR retinal gene expression, rd10 mice", "procedure": "as §2"}, "[6]": {"settings": "GSK PN9 till PN24, compared with WT"}, "[7]": {"settings": "treated PN9 till PN24 vs saline"}},
  "data": [
    {"compound": "O=C(O)c1ccc(CN2CCC(CN[C@@H]3C[C@H]3c3ccccc3)CC2)cc1", "note": "[GSK, GSK2879552]", "values": [
      {"measurement": "contrast sensitivity preserved relative to WT", "setting": "rd10 mice [1]; 0.092 c/d, PN33-35", "value": "approximately 50%"},
      {"measurement": "spatial frequency threshold (acuity)", "setting": "rd10 mice [1]; 100% contrast, PN24-PN32 averaged, untreated around 0.085, WT maximum 0.4", "value": "around 0.240 cyc/deg"},
      {"measurement": "contrast sensitivity", "setting": "rd10 mice [1]; at 0.092 c/d spatial frequency, PN33-35, WT maximum 95%", "value": "43.4+/−14.6%"},
      {"measurement": "vision preserved relative to WT acuity", "setting": "rd10 mice [1]; rd10 mice", "value": "around 60%"},
      {"measurement": "acuity over time PN24 to PN32", "setting": "rd10 mice [1]; data not shown", "value": "slowly increased"},
      {"measurement": "rod nuclei with three foci", "setting": "rod nuclei; untreated rd10 3%", "value": 20, "unit": "%"},
      {"measurement": "rod nuclei with two foci", "setting": "rod nuclei; untreated rd10 26%", "value": 45, "unit": "%"},
      {"measurement": "rod nuclei with one focus", "setting": "rod nuclei; untreated rd10 72%", "value": 35, "unit": "%"},
      {"measurement": "rows of photoreceptors remaining in the ONL", "setting": "rd10 mice [2]; GSK 1.5 mg/kg i.p. daily, data not shown", "value": "5-6 rows"},
      {"measurement": "RHO protein staining", "setting": "rd10 mice [2]; GSK 4.2 mg/kg PN9 till PN24, vs saline", "value": "increased"},
      {"measurement": "photoreceptor survival with dosing each second day", "setting": "rd10 mice [2]; GSK 4.2 mg/kg each second day (ESD), PN9 till PN24", "value": "survived to essentially the same extent as with treatment each day"},
      {"measurement": "rows of photoreceptors preserved in the ONL at PN24", "setting": "rd10 mice [2]; GSK 4.2 mg/kg i.p. daily PN9 till PN24", "value": "more than 10 rows"},
      {"measurement": "rod degeneration at end of short treatment", "setting": "rd10 mice [2]; GSK from PN9 to PN17, examined at PN17", "value": "minimal degeneration"},
      {"measurement": "rod degeneration one week after ending treatment", "setting": "rd10 mice [2]; GSK from PN9 to PN17, examined at PN24", "value": "substantial loss of photoreceptors"},
      {"measurement": "rod degeneration 21 days after ending treatment", "setting": "rd10 mice [2]; GSK from PN9 to PN24, examined at PN45", "value": "substantial loss of cells"},
      {"measurement": "rod degeneration, late start of treatment", "setting": "rd10 mice [2]; GSK from PN15 to PN24, assayed at PN24", "value": "blocked further degeneration"},
      {"measurement": "Gfap gene expression and GFAP protein labeling (gliosis)", "setting": "GFAP, IBA1", "value": "reductions in Muller cell activation"},
      {"measurement": "IBA1 labeling (microglia)", "setting": "GFAP, IBA1; levels remained above WT", "value": "decreased"},
      {"measurement": "global levels of H3K4me2", "setting": "H3K4me2, H3K9me2 [3]", "value": "did not change significantly"},
      {"measurement": "global levels of H3K9me2", "setting": "H3K4me2, H3K9me2 [3]", "value": "No changes"},
      {"measurement": "Pde6b protein in retina", "setting": "Pde6b protein", "value": "three-fold increase"},
      {"measurement": "rod specific gene expression after topical application", "setting": "rd10 mice [4]", "value": "Several rod specific genes were upregulated"},
      {"measurement": "expression of rod photoreceptor genes", "setting": "WT mice retina; WT mice treated PN9 till PN24", "value": "no changes"},
      {"measurement": "expression of transcription factors of retina development and maturation", "setting": "WT mice retina; WT retinas, treated PN9 till PN24", "value": "slightly increased expression"},
      {"measurement": "H3K4me2 at promoters/regulatory elements (Ccnd1, Sox2, Hes1, Rho, Pde6b)", "setting": "H3K4me2, H3K9me2 [5]", "value": "increase in the methylation of H3K4"},
      {"measurement": "H3K9me2 at regulatory elements of progenitor TF and rod specific genes", "setting": "H3K4me2, H3K9me2 [5]", "value": "losing this inhibitory mark"},
      {"measurement": "expression of cone genes except S-opsin", "setting": "rd10 mice retina; GSK ESD PN9 till PN24", "value": "increased to WT levels"},
      {"measurement": "expression of Rho, Prph2, Nr2e3, Nrl, and Pde6b", "setting": "rd10 mice retina; [6]", "value": "increased dramatically and reached WT level"},
      {"measurement": "expression of Sag, Rom1, Crx, Cnga1 and Cngb1", "setting": "rd10 mice retina; [6]", "value": "increased, but not to the WT level"},
      {"measurement": "RNA levels of H2-Aa, C1qa, Aif1 and Cx3cr1", "setting": "rd10 mice retina; GSK PN9 till PN24 vs saline", "value": "reduced"},
      {"measurement": "expression of cone markers", "setting": "rd10 mice retina; GSK daily, PN24, rd10 slightly lower than WT", "value": "did not change it"},
      {"measurement": "gene expression of INL cell types", "setting": "rd10 mice retina; GSK from PN30 till PN40, assayed PN40", "value": "did not change"},
      {"measurement": "expression of Rgr and Hes5", "setting": "rd10 mice retina; GSK treatment of rd10 mice", "value": "increase"},
      {"measurement": "expression of rod photoreceptor genes relative to GAPDH", "setting": "rd10 mice retina; treated PN9 till PN24, assayed PN24, vs saline", "value": "increased expression of almost all rod genes"},
      {"measurement": "expression of most other retina cell type markers", "setting": "rd10 mice retina; treated PN9 till PN24, except Rgr and Hes5", "value": "appeared to be decreased"},
      {"measurement": "expression of Capn2 and Aifm1", "setting": "rd10 mice retina; [7]", "value": "somewhat decreased"},
      {"measurement": "expression of apoptotic specific genes Bcl2, Apaf1, and Casp9", "setting": "rd10 mice retina; [7]", "value": "slightly decreased"},
      {"measurement": "expression of cone genes Thrb or Gnat2", "setting": "rd10 mice retina; [7]", "value": "slightly up-regulated"}
    ]}
  ]
}
